This assay deals with T1, human capsaicin receptor (Homo sapiens, UniProt Q8NER1).
T1 construct: expression consrtuct encoding the full length human capsaicin receptor; expressed in transfected cells
T1 sequence (Q8NER1 whole entry): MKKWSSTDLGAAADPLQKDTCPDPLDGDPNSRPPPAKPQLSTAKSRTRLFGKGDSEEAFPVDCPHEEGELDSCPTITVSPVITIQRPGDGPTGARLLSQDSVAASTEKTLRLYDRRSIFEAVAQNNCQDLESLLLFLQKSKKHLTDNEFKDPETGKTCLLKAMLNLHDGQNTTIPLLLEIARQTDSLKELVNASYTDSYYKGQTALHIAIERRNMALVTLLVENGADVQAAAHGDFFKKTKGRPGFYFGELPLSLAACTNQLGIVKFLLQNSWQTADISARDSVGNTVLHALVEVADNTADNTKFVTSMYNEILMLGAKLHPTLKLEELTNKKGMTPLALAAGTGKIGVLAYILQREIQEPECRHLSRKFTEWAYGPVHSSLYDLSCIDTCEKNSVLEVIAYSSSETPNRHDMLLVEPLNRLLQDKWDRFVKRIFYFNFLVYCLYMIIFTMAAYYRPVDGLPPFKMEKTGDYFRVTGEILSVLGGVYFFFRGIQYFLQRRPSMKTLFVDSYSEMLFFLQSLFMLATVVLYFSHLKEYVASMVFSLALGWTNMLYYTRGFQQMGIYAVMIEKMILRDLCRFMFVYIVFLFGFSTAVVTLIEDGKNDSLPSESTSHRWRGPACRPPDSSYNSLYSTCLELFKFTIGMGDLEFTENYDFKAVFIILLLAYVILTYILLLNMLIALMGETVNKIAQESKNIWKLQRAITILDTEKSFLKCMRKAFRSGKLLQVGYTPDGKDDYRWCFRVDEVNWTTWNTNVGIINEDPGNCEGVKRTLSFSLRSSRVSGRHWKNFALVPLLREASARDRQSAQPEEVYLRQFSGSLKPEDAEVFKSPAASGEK
The assay is described as follows: Antagonist assay for Capsaicin receptor mediated calcium mobilization. The format is cell-based. Particulars: Table III, read-out: EC50 (the source's name). The procedure: Calcium Mobilization Assay
Cells transfected with expression plasmids (as described in Example 10) and thereby expressing the human capsaicin receptor are seeded and grown to 70-90% confluency in FALCON black-walled, clear-bottomed 96-well plates (#3904, BECTON-DICKINSON, Franklin Lakes, N.J.) . The culture media are emptied from the 96 well plates and FLUO-3 AM calcium sensitive dye (Molecular Probes, Eugene, OR) is added to each well (dye solution: 1 mg FLUO-3 AM, 440 uL DMSO and 440 ul 20% pluronic acid in DMSO, diluted 1:4, 50 ul diluted solution per well). Plates are covered with aluminum foil and incubated at 37° C for 1-2 hours in an environment containing 5% CO2. After the incubation the dye is emptied from the plates, and the cells are washed once with Krebs-Ringer HEPES (KRH) buffer (25 mM HEPES, 5 mM KCl, 0.96 mM NaH2PO4, 1 MM MgSO4, 2 mM CaCl2, 5 mM glucose, 1 mM probenecid, pH 7.4), and resuspended in KRH buffer.
Agonist (e.g., olvanil, capsaicin, or RTX)-induced calcium mobilization is monitored using either FLUOROSKAN ASCENT (Labsystems, Franklin, Mass.) or FLIPR (fluorometric imaging plate reader system, Molecular Devices, Sunnyvale, Calif.) instruments. Similarly, varying concentrations of the antagonists ruthenium red or capsazepine are added to cells concurrently with agonist (e.g., 25-50 nM capsaicin). For agonist-induced calcium responses, data obtained between 30 and 60 seconds after agonist application are used to generate the EC50 values. […] software (Synergy Software, Reading, Pa.) was utilized to fit the data to the equation: […]
to determine the EC50 for the response. In this equation, y is the maximum fluorescence signal, x is the concentration of the agonist or antagonist, a is the Emax, b corresponds to the EC50 or IC50 value, and finally, c is the Hill coefficient.
Assay for Determination of Capsaicin Receptor Antagonist Effects
In order to measure the ability of a test compound to antagonize (inhibit) the response of cells expressing capsaicin receptors to capsaicin or other vanilloid agonist, the EC50 of capsaicin is first determined.
An additional 20 ul of KRH buffer and 1 ul DMSO is added to each well of cells, prepared as described above. 100 ul capsaicin in KRH buffer is automatically transferred by the FLIPR instrument to each well.
Test compounds are dissolved in DMSO, diluted in 20 ul KRH buffer so that the final concentration of test compounds in the assay well is between 1 uM and 5 uM, and added to cells prepared as described above. The 96 well plates containing prepared cells and test compounds are incubated in the dark, at room temperature for 0.5-6 hours. It is important that the incubation not continue beyond 6 hours. Just prior to determining the fluorescence response, 100 ul capsaicin in KRH buffer at twice the EC50 concentration determined from the concentration response curve is automatically added by the FLIPR instrument to each well of the 96 well plate for a final sample volume of 200 ul and a final capsaicin concentration equal to the EC50. The final concentration of test compounds in the assay wells is between 1 uM and 5 uM. […] Antagonists of the capsaicin receptor decrease this response by about 20%, preferably by about 50%, and most preferably by at least 80% as compared to matched control. The concentration of antagonist required to provide a 50% decrease is the EC50 for the antagonist (also referred to as the IC50).
For `C[C@@H]1CN(c2ncccc2Cl)CCN1C(=O)Nc1ccc(C2=CCOCC2)cc1` [Compound 48, (2R)-4-(3-chloropyridin-2-yl)-N-[4-(3,6-dihydro-2H-pyran-4-yl)phenyl]-2-methylpiperazine-1-carboxamide], the IC50 is < 1000 nM. Regarding `C[C@@H]1CN(c2ncccc2Cl)CCN1C(=O)Nc1ccc(C2CCOCC2)cc1` [Compound 49, (2R)-4-(3-chloropyridin-2-yl)-2-methyyl-N-(4-tetrahydro-2H-pyran-4-ylphenyl)piperazne-1-carboxamide], the IC50 was < 1000 nM. The figure for `C[C@@H]1CN(c2ncccc2Cl)CCN1C(=O)Nc1ccc(C2(O)CCOCC2)cc1` [Compound 50, (2R)-4-(3-chloropyridin-2-yl)-N-[4-(4-hydroxytetrahydro-2H-pyran-4-yl)phenyl]-2-methylpiperazine-1-carboxamide] is < 1000 nM. The figure for `C[C@@H]1CN(c2ncccc2C(F)(F)F)CCN1C(=O)Nc1ccc(C2(O)CCOCC2)cc1` [Compound 51, (2R)-N-[4-(4-hydroxytetrahydro-2H-pyran-4-yl)phenyl]-2-methyl-4-[3-(trifluoromethyl)pyridin-2-yl]piperazine-1-carboxamide] is < 1000 nM. The figure for `Cc1nc(-c2ccc(NC(=O)N3CCN(c4ncccc4Cl)C[C@H]3C)cc2)cs1` [Compound 52, (2R)-4-(3-chloropyridin-2-yl)-2-methyl-N-[4-(2-methyl-1,3-thiazol-4-yl)phenyl]piperazine-1-carboxamide] is < 1000 nM; for `CCc1nc(-c2ccc(NC(=O)N3CCN(c4ncccc4Cl)C[C@H]3C)cc2)cs1` [Compound 53, (2R)-4-(3-chloropyridin-2-yl)-N-[4-(2-ethyl-1,3-thiazol-4-yl)phenyl]-2-methylpiperazine-1-carboxamide] it is < 1000 nM.

Turning to `COCC(C)(C)c1ccc(NC(=O)N2CCN(c3ncccc3Cl)C[C@H]2C)cc1` [Compound 54, (2R)-4-(3-chloropyridin-2-yl)-N-[4-(2-methoxy-1,1-dimethylethyl)phenyl]-2-methylpiperazine-1-carboxamide], the IC50 was < 1000 nM.

With `COCC(C)(C)c1ccc(NC(=O)N2CCN(c3ncccc3C(F)(F)F)C[C@H]2C)cc1` [Compound 55, (2R)-N-[4-(2-methoxy-1,1-dimethylethyl)phenyl]-2-methyl-4-[3-(trifluoromethyl)pyridin-2-yl]piperazine-1-carboxamide], the IC50 is < 1000 nM. The value for `C[C@@H]1CN(c2ncccc2Cl)CCN1C(=O)Nc1ccc(C(C)(C)C#N)cc1` [Compound 56, (2R)-4-(3-chloropyridin-2-yl)-N-[4-(1-cyano-1-methylethyl)phenyl]-2-methylpiperazine-1-carboxamide] was < 1000 nM.

In the case of `C[C@@H]1CN(c2ncccc2C(F)(F)F)CCN1C(=O)Nc1ccc(C(C)(C)C#N)cc1` [Compound 57, (2R)-N-[4-(1-cyano-1-methylethyl)phenyl]-2-methyl-4-[3-(trifluoromethyl)pyridin-2-yl]piperazine-1-carboxamide], the IC50 was < 1000 nM. The value for `CCC1CN(c2ncccc2Cl)CCN1C(=O)Nc1ccc(C(C)(C)C)cc1` (stereo not shown) [Compound 58, N-(4-tert-butylphenyl)-4-(3-chloropyridin-2-yl)-2-ethylpiperazine-1-carboxamide] was < 1000 nM; that for `CCC1CN(c2ncccc2Cl)CCN1C(=O)Nc1ccc(C(F)(F)F)cc1` (stereo not shown) [Compound 59, 4-(3-chloropyridin-2-yl)-2-ethyl-N-[4-(trifluoromethyl)phenyl]piperazine-1-carboxamide] was < 1000 nM. The figure for `CCC1CN(c2ncccc2Cl)CCN1C(=O)Nc1ccc(C(C)C)cc1` (stereo not shown) [Compound 60, 4-(3-chloropyridin-2-yl)-2-ethyl-N-[4-isopropylphenyl)piperazine-1-carboxamide] is < 1000 nM. The figure for `CCC1CN(c2ncccc2C(F)(F)F)CCN1C(=O)Nc1ccc(C(C)(C)C)cc1` (stereo not shown) [Compound 61, N-(4-tert-butylphenyl)-2-ethyl-4-[3-(trifluoromethyl)pyridin-2-yl]piperazine-1-carboxamide] is < 1000 nM; for `CCC1CN(c2ncccc2C(F)(F)F)CCN1C(=O)Nc1ccc(C(F)(F)F)cc1` (stereo not shown) [Compound 62, 2-ethyl-N-[4-(trifluoromethyl)phenyl]-4-[3-(trifluoromethyl)pyridin-2-yl]piperazine-1-carboxamide] it is < 1000 nM; for `CCC1CN(c2ncccc2C(F)(F)F)CCN1C(=O)Nc1ccc(C(C)C)cc1` (stereo not shown) [Compound 63, 2-ethyl-N-(4-isopropylphenyl)-4-[3-(trifluoromethyl)pyridin-2-yl]piperazine-1-carboxamide] it is < 1000 nM. As for `CC(C)(C)c1ccc(NC(=O)N2CCN(c3ncccc3Cl)CC2C(C)(C)C)cc1` (stereo not shown) [Compound 64, 2-tert-butyl-N-(4-tert-butylphenyl)-4-(3-chloropyridin-2-yl)piperazine-1-carboxamide], the IC50 is < 1000 nM.

Take `CC(C)(C)C1CN(c2ncccc2C(F)(F)F)CCN1C(=O)Nc1ccc(C(F)(F)F)cc1` (stereo not shown) [Compound 68, 2-tert-butyl-N-[4-(trifluoromethyl)phenyl]-4-[3-(trifluoromethyl)pyridin-2-yl]piperazine-1-carboxamide]: the IC50 was < 1000 nM. The figure for `CC(C)C1CN(c2ncccc2Cl)CCN1C(=O)Nc1ccc(C(C)(C)C)cc1` (stereo not shown) [Compound 69, N-(4-tert-butylphenyl)-4-(3-chloropyridin-2-yl)-2-isopropylpiperazine-1-carboxamide] is < 1000 nM; for `CC(C)C1CN(c2ncccc2C(F)(F)F)CCN1C(=O)Nc1ccc(C(C)(C)C)cc1` (stereo not shown) [Compound 72, N-(4-tert-butylphenyl)-2-isopropylk-4-[3-(trifluoromethyl)pyridin-2-yl]piperazine-1-carboxamide] it is < 1000 nM. The figure for `CC(C)C1CN(c2ncccc2C(F)(F)F)CCN1C(=O)Nc1ccc(C(F)(F)F)cc1` (stereo not shown) [Compound 73, 2-isopropyl-N-[4-(trifluoromethyl)phenyl]-4-[3-(trifluoromethyl)pyridin-2-yl]piperazine-1-carboxamide] is < 1000 nM; for `CC(C)c1ccc(NC(=O)N2CCN(c3ncccc3C(F)(F)F)CC2C(C)C)cc1` (stereo not shown) [Compound 74, 2-isopropyl-N-(4-isopropylphenyl)-4-[3-(trifluoromethyl)pyridin-2-yl]piperazine-1-carboxamide] it is < 1000 nM. The figure for `C[C@@H]1CN(c2ncccc2F)CCN1C(=O)Nc1ccc(C(F)(F)F)cc1` [Compound 75, (2R)-4-(3-fluoropyridin-2-yl)-2-methyl-N-[4-(trifluoromethyl)phenyl]piperazine-1-carboxamide] is < 1000 nM; for `CC(C)c1ccc(NC(=O)N2CCN(c3ncccc3F)C[C@H]2C)cc1` [Compound 77, (2R)-4-(3-fluoropyridin-2-yl)-N-(4-isopropylphenyl)-2-methylpiperazine-1-carboxamide] it is < 1000 nM; for `C[C@@H]1CN(c2ncccc2F)CCN1C(=O)Nc1ccc(C2CCCCC2)cc1` [Compound 78, (2R)-N-(4-cyclohexylphenyl)-4-(3-fluoropyridin-2-yl)-2-methylpiperazine-1-carboxamide] it is < 1000 nM. In the case of `C[C@@H]1CN(c2ncccc2F)CCN1C(=O)Nc1ccc(C2CCCC2)cc1` [Compound 79, (2R)-N-(4-cyclopentylphenyl)-4-(3-fluoropyridin-2-yl)-2-methylpiperazine-1-carboxamide], the IC50 was < 1000 nM. The figure for `C[C@@H]1CN(c2ncccc2C#N)CCN1C(=O)Nc1ccc(C(C)(C)C)cc1` [Compound 82, (2R)-N-(4-tert-butylphenyl)-4-(3-cyanopyridin-2-yl)-2-methylpiperazine-1-carboxamide] is < 1000 nM; for `C[C@@H]1CN(c2ncccc2C#N)CCN1C(=O)Nc1ccc(C(F)(F)F)cc1` [Compound 83, (2R)-4-(3-cyanopyridin-2-yl)-2-methyl-N-[4-(trifluoromethyl)phenyl]piperazine-1-carboxamide] it is < 1000 nM.

These data come from patent US20020132853A1, “Capsaicin receptor ligands” (priority 2000, published 2002).
